Laboratory results reported in the kinase profiling compilation of Christmann-Franck et al. (2016).

Assays:
Assay in all cases: radiometric filter-binding kinase assay, Kinase HotSpot
Details in all cases: compound 0.5 µM; ATP 10 µM
MAPK14 (human) = MAPK14 (human) (UniProt Q16539)
PTK2 (human) = PTK2 (human) (UniProt Q05397)
STK33 (human) = STK33 (human) (UniProt Q9BYT3)
DYRK2 (human) = DYRK2 (human) (UniProt Q92630)
CDK9 CCNK (human) = CDK9 CCNK (human) (UniProt O75909+P50750)
STK24 (human) = STK24 (human) (UniProt Q9Y6E0)
Chain of STK24 (human) (Q9Y6E0 whole entry, looked up): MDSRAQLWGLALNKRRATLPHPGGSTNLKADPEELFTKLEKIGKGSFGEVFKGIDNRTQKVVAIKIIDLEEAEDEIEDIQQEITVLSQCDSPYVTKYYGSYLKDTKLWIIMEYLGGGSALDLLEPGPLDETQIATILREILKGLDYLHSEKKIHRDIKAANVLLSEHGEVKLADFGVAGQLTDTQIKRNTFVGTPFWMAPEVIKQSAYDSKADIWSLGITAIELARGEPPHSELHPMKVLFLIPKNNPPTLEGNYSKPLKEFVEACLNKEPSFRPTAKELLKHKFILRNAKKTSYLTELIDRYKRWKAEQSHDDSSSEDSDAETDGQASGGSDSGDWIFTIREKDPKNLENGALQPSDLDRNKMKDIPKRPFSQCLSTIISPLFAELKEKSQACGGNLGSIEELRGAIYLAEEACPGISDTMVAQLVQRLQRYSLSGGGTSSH

EPHA2 (human) = EPHA2 (human) (UniProt P29317)
Chain of EPHA2 (human) (P29317 whole entry, looked up): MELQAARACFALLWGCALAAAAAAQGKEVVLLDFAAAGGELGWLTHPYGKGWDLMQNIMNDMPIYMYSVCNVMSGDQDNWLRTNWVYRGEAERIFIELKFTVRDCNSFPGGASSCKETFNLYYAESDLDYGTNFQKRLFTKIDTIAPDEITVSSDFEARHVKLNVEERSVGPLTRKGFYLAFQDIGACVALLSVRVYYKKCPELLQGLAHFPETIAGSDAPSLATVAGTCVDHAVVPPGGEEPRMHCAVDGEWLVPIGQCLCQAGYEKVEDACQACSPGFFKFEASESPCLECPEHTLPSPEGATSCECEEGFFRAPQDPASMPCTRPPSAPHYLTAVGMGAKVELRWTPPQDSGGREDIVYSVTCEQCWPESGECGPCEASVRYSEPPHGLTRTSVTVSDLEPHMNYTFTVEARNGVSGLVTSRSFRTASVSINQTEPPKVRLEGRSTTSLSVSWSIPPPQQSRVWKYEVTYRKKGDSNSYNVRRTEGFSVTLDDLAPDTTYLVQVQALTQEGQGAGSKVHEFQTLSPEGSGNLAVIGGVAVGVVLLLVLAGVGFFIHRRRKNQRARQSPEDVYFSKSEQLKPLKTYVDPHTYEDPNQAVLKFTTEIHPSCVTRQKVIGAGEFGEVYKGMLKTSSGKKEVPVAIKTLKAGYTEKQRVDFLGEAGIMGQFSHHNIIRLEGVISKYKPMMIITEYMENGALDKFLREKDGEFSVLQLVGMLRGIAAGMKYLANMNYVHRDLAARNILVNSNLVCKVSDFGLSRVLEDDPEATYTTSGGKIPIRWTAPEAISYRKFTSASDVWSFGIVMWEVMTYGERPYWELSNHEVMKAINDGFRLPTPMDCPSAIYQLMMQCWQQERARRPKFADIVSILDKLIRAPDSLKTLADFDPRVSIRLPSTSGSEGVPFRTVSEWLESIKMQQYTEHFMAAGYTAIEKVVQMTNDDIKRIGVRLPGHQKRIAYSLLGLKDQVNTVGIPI

MYLK (human) = MYLK (human) (UniProt Q15746)
PAK7 (human) = PAK7 (human) (UniProt Q9P286)
FER (human) = FER (human) (UniProt P16591)
CHUK (human) = CHUK (human) (UniProt O15111)
MAPK12 (human) = MAPK12 (human) (UniProt P53778)
PTK2B (human) = PTK2B (human) (UniProt Q14289)
SRPK2 (human) = SRPK2 (human) (UniProt P78362)
CAMK1 (human) = CAMK1 (human) (UniProt Q14012)
MINK1 (human) = MINK1 (human) (UniProt Q8N4C8)
Chain of MINK1 (human) (Q8N4C8 whole entry, looked up): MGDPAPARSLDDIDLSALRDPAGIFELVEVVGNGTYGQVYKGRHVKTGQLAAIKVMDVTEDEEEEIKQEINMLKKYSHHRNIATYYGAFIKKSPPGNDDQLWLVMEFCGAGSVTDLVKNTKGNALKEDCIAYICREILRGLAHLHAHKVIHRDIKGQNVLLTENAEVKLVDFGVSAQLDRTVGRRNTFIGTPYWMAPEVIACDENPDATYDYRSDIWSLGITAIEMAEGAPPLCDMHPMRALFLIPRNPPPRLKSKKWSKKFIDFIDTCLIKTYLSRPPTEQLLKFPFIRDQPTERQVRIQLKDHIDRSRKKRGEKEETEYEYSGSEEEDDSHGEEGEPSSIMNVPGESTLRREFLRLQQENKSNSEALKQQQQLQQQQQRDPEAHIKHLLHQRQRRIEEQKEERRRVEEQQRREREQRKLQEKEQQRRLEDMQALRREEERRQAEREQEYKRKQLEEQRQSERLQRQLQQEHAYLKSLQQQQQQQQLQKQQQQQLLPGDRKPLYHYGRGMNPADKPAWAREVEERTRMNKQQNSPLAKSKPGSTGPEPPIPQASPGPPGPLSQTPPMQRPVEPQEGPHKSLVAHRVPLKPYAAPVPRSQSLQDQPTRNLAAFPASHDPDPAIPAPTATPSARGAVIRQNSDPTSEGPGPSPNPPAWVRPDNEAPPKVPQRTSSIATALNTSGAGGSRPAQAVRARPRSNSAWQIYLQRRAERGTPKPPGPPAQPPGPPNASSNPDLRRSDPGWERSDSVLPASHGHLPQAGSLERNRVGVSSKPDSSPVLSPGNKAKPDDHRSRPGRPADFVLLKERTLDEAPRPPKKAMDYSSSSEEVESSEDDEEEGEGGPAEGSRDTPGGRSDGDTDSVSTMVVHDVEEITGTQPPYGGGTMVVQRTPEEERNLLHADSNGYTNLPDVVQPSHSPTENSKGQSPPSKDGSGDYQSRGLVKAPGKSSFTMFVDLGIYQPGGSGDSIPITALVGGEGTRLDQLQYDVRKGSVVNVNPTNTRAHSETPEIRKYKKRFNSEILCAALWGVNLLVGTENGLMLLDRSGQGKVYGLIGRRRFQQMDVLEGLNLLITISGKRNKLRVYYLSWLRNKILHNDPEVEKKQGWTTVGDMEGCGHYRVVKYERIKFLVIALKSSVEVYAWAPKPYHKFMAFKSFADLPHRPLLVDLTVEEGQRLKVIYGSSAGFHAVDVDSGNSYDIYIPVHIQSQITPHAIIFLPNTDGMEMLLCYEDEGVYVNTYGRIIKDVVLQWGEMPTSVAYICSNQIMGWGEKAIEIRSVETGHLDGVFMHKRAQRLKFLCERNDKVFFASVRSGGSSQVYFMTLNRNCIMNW

DSTYK (human) = DSTYK (human) (UniProt Q6XUX3)
ERBB2 (human) = ERBB2 (human) (UniProt P04626)
MST4 (human) = MST4 (human) (UniProt Q9P289)
DAPK3 (human) = DAPK3 (human) (UniProt O43293)
[1] = molecular target: JAK1 JH1 catalytic (human) (UniProt P23458)
IRAK1 (human) = IRAK1 (human) (UniProt P51617)
SRPK1 (human) = SRPK1 (human) (UniProt Q96SB4)
FGR (human) = FGR (human) (UniProt P09769)
NEK7 (human) = NEK7 (human) (UniProt Q8TDX7)
Chain of NEK7 (human) (Q8TDX7 whole entry, looked up): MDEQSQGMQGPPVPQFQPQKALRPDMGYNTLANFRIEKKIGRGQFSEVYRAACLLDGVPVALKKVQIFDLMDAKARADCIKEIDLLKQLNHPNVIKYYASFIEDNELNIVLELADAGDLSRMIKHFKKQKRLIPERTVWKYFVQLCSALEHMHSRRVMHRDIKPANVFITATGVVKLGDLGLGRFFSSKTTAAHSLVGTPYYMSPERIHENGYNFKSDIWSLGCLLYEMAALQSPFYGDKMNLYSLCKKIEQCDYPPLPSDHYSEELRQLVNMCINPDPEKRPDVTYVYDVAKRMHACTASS

NLK (human) = NLK (human) (UniProt Q9UBE8)
Chain of NLK (human) (Q9UBE8 whole entry, looked up): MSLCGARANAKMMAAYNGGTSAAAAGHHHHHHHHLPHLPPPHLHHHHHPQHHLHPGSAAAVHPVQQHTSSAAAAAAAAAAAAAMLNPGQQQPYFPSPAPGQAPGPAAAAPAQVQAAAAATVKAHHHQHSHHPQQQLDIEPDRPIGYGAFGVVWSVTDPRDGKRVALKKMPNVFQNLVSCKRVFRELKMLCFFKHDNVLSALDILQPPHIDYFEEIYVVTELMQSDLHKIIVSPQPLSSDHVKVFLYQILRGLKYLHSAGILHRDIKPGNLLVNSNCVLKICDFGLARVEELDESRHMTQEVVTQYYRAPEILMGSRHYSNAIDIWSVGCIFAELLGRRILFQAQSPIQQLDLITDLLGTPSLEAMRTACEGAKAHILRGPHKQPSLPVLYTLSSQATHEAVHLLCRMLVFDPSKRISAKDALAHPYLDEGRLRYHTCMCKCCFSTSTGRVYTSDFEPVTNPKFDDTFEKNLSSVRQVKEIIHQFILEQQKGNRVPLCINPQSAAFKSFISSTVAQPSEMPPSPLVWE

CDK7 CCNH MNAT1 (human) = CDK7 CCNH MNAT1 (human) (UniProt P50613+P51948+P51946)
TAOK3 (human) = TAOK3 (human) (UniProt Q9H2K8)
CSF1R (human) = CSF1R (human) (UniProt P07333)
PIM2 (human) = PIM2 (human) (UniProt Q9P1W9)
CDK6 CCND1 (human) = CDK6 CCND1 (human) (UniProt Q00534+P24385)
BLK (human) = BLK (human) (UniProt P51451)
MAPK8 (human) = MAPK8 (human) (UniProt P45983)
ADRBK2 (human) = ADRBK2 (human) (UniProt P35626)
CAMK1G (human) = CAMK1G (human) (UniProt Q96NX5)
FGFR1 (human) = FGFR1 (human) (UniProt P11362)
Chain of FGFR1 (human) (P11362 whole entry, looked up): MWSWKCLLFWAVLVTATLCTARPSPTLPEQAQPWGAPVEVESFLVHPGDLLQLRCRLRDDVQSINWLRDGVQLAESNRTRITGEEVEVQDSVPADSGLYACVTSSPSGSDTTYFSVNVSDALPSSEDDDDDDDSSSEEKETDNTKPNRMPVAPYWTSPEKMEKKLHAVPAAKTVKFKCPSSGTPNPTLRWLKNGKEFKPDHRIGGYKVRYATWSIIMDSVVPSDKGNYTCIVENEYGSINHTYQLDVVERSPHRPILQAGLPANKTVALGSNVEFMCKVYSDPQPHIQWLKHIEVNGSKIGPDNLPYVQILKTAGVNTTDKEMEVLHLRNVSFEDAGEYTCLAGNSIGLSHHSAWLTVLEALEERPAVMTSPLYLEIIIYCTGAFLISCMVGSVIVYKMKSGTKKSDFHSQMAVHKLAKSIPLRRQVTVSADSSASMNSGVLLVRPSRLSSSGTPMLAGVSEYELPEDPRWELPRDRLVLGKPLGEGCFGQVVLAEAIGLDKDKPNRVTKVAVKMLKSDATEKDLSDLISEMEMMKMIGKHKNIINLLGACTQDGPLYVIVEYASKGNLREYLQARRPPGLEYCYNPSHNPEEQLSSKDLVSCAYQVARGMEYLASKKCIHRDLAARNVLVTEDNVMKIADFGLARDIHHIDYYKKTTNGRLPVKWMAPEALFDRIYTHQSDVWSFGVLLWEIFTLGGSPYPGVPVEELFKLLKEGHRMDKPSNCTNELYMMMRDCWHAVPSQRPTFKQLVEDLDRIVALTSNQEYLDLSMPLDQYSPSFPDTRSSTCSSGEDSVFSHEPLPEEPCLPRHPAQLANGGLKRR

DYRK1A (human) = DYRK1A (human) (UniProt Q13627)
AKT3 (human) = AKT3 (human) (UniProt Q9Y243)
ADRBK1 (human) = ADRBK1 (human) (UniProt P25098)
NEK3 (human) = NEK3 (human) (UniProt P51956)
Chain of NEK3 (human) (P51956 whole entry, looked up): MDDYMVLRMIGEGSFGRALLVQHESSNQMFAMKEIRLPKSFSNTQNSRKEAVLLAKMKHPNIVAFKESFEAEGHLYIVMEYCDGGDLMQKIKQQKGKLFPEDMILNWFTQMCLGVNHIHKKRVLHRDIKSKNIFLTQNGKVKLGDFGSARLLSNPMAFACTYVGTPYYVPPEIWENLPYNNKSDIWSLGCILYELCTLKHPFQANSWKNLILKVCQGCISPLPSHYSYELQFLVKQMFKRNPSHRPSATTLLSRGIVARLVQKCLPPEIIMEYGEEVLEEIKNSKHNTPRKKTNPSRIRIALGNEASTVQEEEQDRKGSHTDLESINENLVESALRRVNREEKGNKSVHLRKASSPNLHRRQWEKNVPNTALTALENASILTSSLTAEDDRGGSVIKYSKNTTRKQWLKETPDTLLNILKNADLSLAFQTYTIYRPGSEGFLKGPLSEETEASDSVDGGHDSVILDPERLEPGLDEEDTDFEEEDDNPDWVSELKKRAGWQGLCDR

DYRK4 (human) = DYRK4 (human) (UniProt Q9NR20)
IRAK4 (human) = IRAK4 (human) (UniProt Q9NWZ3)

`CCC(=O)Nc1ccc2ncnc(Nc3cccc(Br)c3)c2c1` was tested, and the residual activity (MAPK14 (human)) was 82.8%, the residual activity (PTK2 (human)) was 99.4% and the residual activity (STK33 (human)) was 94.1%. The residual activity (DYRK2 (human)) was 90.6%, the residual activity (CDK9 CCNK (human)) was 94.1% and the residual activity (STK24 (human)) was 102%. For the same compound, the residual activity (EPHA2 (human)) was 101%, the residual activity (MYLK (human)) was 95.5% and the residual activity (PAK7 (human)) was 91.6%. The residual activity (FER (human)) was 95.6%, the residual activity (CHUK (human)) was 99.3% and the residual activity (MAPK12 (human)) was 103%. For the same compound, the residual activity (PTK2B (human)) was 99%, the residual activity (SRPK2 (human)) was 88.6% and the residual activity (CAMK1 (human)) was 88.9%. It also gave a residual activity (MINK1 (human)) of 95.8%, a residual activity (DSTYK (human)) of 91.3% and a residual activity (ERBB2 (human)) of 34%. It also gave a residual activity (MST4 (human)) of 97.6%, a residual activity (DAPK3 (human)) of 104% and a residual activity [1] of 96.6%. For the same compound, the residual activity (IRAK1 (human)) was 92.7%, the residual activity (SRPK1 (human)) was 97% and the residual activity (FGR (human)) was 93.2%. The residual activity (NEK7 (human)) was 92.7%, the residual activity (NLK (human)) was 95.9% and the residual activity (CDK7 CCNH MNAT1 (human)) was 102%. For the same compound, the residual activity (TAOK3 (human)) was 89.2%, the residual activity (CSF1R (human)) was 98.9% and the residual activity (PIM2 (human)) was 90.3%. It also gave a residual activity (CDK6 CCND1 (human)) of 92.5%, a residual activity (BLK (human)) of 90.7% and a residual activity (MAPK8 (human)) of 73.7%. It also gave a residual activity (ADRBK2 (human)) of 99.2%, a residual activity (CAMK1G (human)) of 92.1% and a residual activity (FGFR1 (human)) of 108%. For the same compound, the residual activity (DYRK1A (human)) was 89.2%, the residual activity (AKT3 (human)) was 94.4% and the residual activity (ADRBK1 (human)) was 112%. The residual activity (NEK3 (human)) was 99.6%, the residual activity (DYRK4 (human)) was 113% and the residual activity (IRAK4 (human)) was 79.8%.
`CC(=O)c1ccc(N2CCOCC2)cc1O` was tested, and the residual activity (MAPK14 (human)) was 97.1%, the residual activity (PTK2 (human)) was 107% and the residual activity (STK33 (human)) was 109%. The residual activity (DYRK2 (human)) was 101%, the residual activity (CDK9 CCNK (human)) was 106% and the residual activity (STK24 (human)) was 99%. For the same compound, the residual activity (EPHA2 (human)) was 107%, the residual activity (MYLK (human)) was 91.1% and the residual activity (PAK7 (human)) was 102%. It also gave a residual activity (FER (human)) of 90.4%, a residual activity (CHUK (human)) of 96.2% and a residual activity (MAPK12 (human)) of 78.7%. For the same compound, the residual activity (PTK2B (human)) was 102%, the residual activity (SRPK2 (human)) was 98.6% and the residual activity (CAMK1 (human)) was 102%. For the same compound, the residual activity (MINK1 (human)) was 94.3%, the residual activity (DSTYK (human)) was 95.3% and the residual activity (ERBB2 (human)) was 98.2%. For the same compound, the residual activity (MST4 (human)) was 99.5%, the residual activity (DAPK3 (human)) was 98.1% and the residual activity [1] was 104%. The residual activity (IRAK1 (human)) was 111%, the residual activity (SRPK1 (human)) was 90.7% and the residual activity (FGR (human)) was 95.6%. For the same compound, the residual activity (NEK7 (human)) was 101%, the residual activity (NLK (human)) was 95.6% and the residual activity (CDK7 CCNH MNAT1 (human)) was 105%. It also gave a residual activity (TAOK3 (human)) of 98.4%, a residual activity (CSF1R (human)) of 100% and a residual activity (PIM2 (human)) of 117%. For the same compound, the residual activity (CDK6 CCND1 (human)) was 99.3%, the residual activity (BLK (human)) was 102% and the residual activity (MAPK8 (human)) was 96.8%. The residual activity (ADRBK2 (human)) was 89.1%, the residual activity (CAMK1G (human)) was 101% and the residual activity (FGFR1 (human)) was 91.4%. It also gave a residual activity (DYRK1A (human)) of 98%, a residual activity (AKT3 (human)) of 107% and a residual activity (ADRBK1 (human)) of 99%. For the same compound, the residual activity (NEK3 (human)) was 103%, the residual activity (DYRK4 (human)) was 95.6% and the residual activity (IRAK4 (human)) was 120%.
`CNc1cc2c(Nc3cccc(Br)c3)ncnc2cn1` was tested, and the residual activity (MAPK14 (human)) was 90%, the residual activity (PTK2 (human)) was 90.2% and the residual activity (STK33 (human)) was 95.2%. The residual activity (DYRK2 (human)) was 89.9%, the residual activity (CDK9 CCNK (human)) was 105% and the residual activity (STK24 (human)) was 101%. The residual activity (EPHA2 (human)) was 95.3%, the residual activity (MYLK (human)) was 79.5% and the residual activity (PAK7 (human)) was 90.8%. For the same compound, the residual activity (FER (human)) was 97.1%, the residual activity (CHUK (human)) was 99% and the residual activity (MAPK12 (human)) was 93.6%. For the same compound, the residual activity (PTK2B (human)) was 94.5%, the residual activity (SRPK2 (human)) was 89.4% and the residual activity (CAMK1 (human)) was 92.3%. The residual activity (MINK1 (human)) was 91.9%, the residual activity (DSTYK (human)) was 94.1% and the residual activity (ERBB2 (human)) was 28.9%. It also gave a residual activity (MST4 (human)) of 109%, a residual activity (DAPK3 (human)) of 90.9% and a residual activity [1] of 79.9%. The residual activity (IRAK1 (human)) was 85.2%, the residual activity (SRPK1 (human)) was 90.7% and the residual activity (FGR (human)) was 88.3%. It also gave a residual activity (NEK7 (human)) of 90.4%, a residual activity (NLK (human)) of 84.3% and a residual activity (CDK7 CCNH MNAT1 (human)) of 102%. It also gave a residual activity (TAOK3 (human)) of 94%, a residual activity (CSF1R (human)) of 100% and a residual activity (PIM2 (human)) of 102%. The residual activity (CDK6 CCND1 (human)) was 82.2%, the residual activity (BLK (human)) was 103% and the residual activity (MAPK8 (human)) was 96.4%. It also gave a residual activity (ADRBK2 (human)) of 101%, a residual activity (CAMK1G (human)) of 97.9% and a residual activity (FGFR1 (human)) of 96.5%. For the same compound, the residual activity (DYRK1A (human)) was 95.6%, the residual activity (AKT3 (human)) was 103% and the residual activity (ADRBK1 (human)) was 97%. The residual activity (NEK3 (human)) was 101%, the residual activity (DYRK4 (human)) was 87.5% and the residual activity (IRAK4 (human)) was 82.6%.
`Cc1ccc(NC2=CC(=O)c3sc(C)nc3C2=O)cc1` gave a residual activity (MAPK14 (human)) of 92.4%, a residual activity (PTK2 (human)) of 102% and a residual activity (STK33 (human)) of 96.6%. For the same compound, the residual activity (DYRK2 (human)) was 109%, the residual activity (CDK9 CCNK (human)) was 84.4% and the residual activity (STK24 (human)) was 82.8%. It also gave a residual activity (EPHA2 (human)) of 102%, a residual activity (MYLK (human)) of 90.1% and a residual activity (PAK7 (human)) of 77.4%. The residual activity (FER (human)) was 83.9%, the residual activity (CHUK (human)) was 91.9% and the residual activity (MAPK12 (human)) was 99.3%. The residual activity (PTK2B (human)) was 90.2%, the residual activity (SRPK2 (human)) was 101% and the residual activity (CAMK1 (human)) was 87.6%. It also gave a residual activity (MINK1 (human)) of 101%, a residual activity (DSTYK (human)) of 76.1% and a residual activity (ERBB2 (human)) of 94.2%. The residual activity (MST4 (human)) was 86.6%, the residual activity (DAPK3 (human)) was 104% and the residual activity [1] was 95.1%. The residual activity (IRAK1 (human)) was 108%, the residual activity (SRPK1 (human)) was 92.6% and the residual activity (FGR (human)) was 85.3%. It also gave a residual activity (NEK7 (human)) of 96.9%, a residual activity (NLK (human)) of 107% and a residual activity (CDK7 CCNH MNAT1 (human)) of 95.4%. For the same compound, the residual activity (TAOK3 (human)) was 98.9%, the residual activity (CSF1R (human)) was 89.9% and the residual activity (PIM2 (human)) was 103%. For the same compound, the residual activity (CDK6 CCND1 (human)) was 101%, the residual activity (BLK (human)) was 95.4% and the residual activity (MAPK8 (human)) was 100%. For the same compound, the residual activity (ADRBK2 (human)) was 84.5%, the residual activity (CAMK1G (human)) was 95% and the residual activity (FGFR1 (human)) was 85.3%. The residual activity (DYRK1A (human)) was 103%, the residual activity (AKT3 (human)) was 92.8% and the residual activity (ADRBK1 (human)) was 96.6%. The residual activity (NEK3 (human)) was 88.2%, the residual activity (DYRK4 (human)) was 97.9% and the residual activity (IRAK4 (human)) was 124%.
